Measured values as given in ChEMBL document CHEMBL1201862, “PubChem BioAssay data set” (2004).
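Cultured in 96-well plates, cells were exposed to test compound for 48 hours across five concentrations. The concentration for 50% growth inhibition is given as GI50.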 Activity calls are given as the source filed them. Cut-off read from the data, not from the text of the source: active = GI50 up to about 1.1 µM and inactive = higher.

Assays:
Assay in all cases: NCI-60 cell line screen, 48 h
CAKI-1 = system: CAKI-1
CCRF-CEM = system: CCRF-CEM
EKVX = system: EKVX
HCT-15 = system: HCT-15
HL-60 = system: HL-60
KM12 = system: KM12
NCI-H522 = system: NCI-H522
OVCAR-4 = system: OVCAR-4
RXF 393 = system: RXF 393
SNB-75 = system: SNB-75
SR = system: SR
UACC-257 = system: UACC-257
UACC-62 = system: UACC-62
UO-31 = system: UO-31
LOX IMVI = system: LOX IMVI
Hs-578T = system: Hs-578T
NCI/ADR-RES = system: NCI/ADR-RES
T47D = system: T47D

Row | SMILES | GI50 (CAKI-1) | GI50 (CCRF-CEM) | GI50 (EKVX) | GI50 (HCT-15) [µM] | GI50 (HL-60) | GI50 (KM12) | GI50 (NCI-H522) | GI50 (OVCAR-4) | GI50 (RXF 393) | GI50 (SNB-75) | GI50 (SR) | GI50 (UACC-257) | GI50 (UACC-62) | GI50 (UO-31) | GI50 (LOX IMVI) | GI50 (Hs-578T) | GI50 (NCI/ADR-RES) | GI50 (T47D)
1 | NNC(=O)C(=O)N/N=C1/CCCC1C(=O)CCC(=O)Nc1ccc(Cl)cc1 (stereo unspecified) | 20.5 µM (inactive) | > 100 µM (inactive) | > 100 µM (inactive) | 12.2 | > 100 µM (inactive) | > 100 µM (inactive) | > 100 µM (inactive) | > 100 µM (inactive) | > 100 µM (inactive) | > 100 µM (inactive) | > 100 µM (inactive) | > 100 µM (inactive) | 2.49 µM (inactive) | > 100 µM (inactive) |  |  |  | 
2 | O=C(CN1CCN(c2ccccc2)CC1)N1CCc2c([nH]c3ccccc23)C1c1cccnc1 (stereo unspecified) | 25.3 µM (inactive) | > 100 µM (inactive) | > 100 µM (inactive) | 57.3 | 30.9 µM (inactive) | 97.3 µM (inactive) | 29.3 µM (inactive) | > 29.4 µM (inactive) | 9.68 µM (inactive) | 6.92 µM (inactive) | > 100 µM (inactive) | > 100 µM (inactive) | 88.7 µM (inactive) | > 58.3 µM (inactive) | > 73.1 µM (inactive) |  |  | 
3 | C=C1C(=O)O[C@@H]2[C@H]1CC[C@H](C)[C@]1(O)CCC(=O)[C@@]21C [CORONOPILIN] |  | 4.69 µM (inactive) | > 10 µM (inactive) | > 10 | 3.66 µM (inactive) | > 10 µM (inactive) |  | > 10 µM (inactive) | > 10 µM (inactive) | > 10 µM (inactive) | 5.73 µM (inactive) |  | > 10 µM (inactive) | 0.0094 µM (active) | > 10 µM (inactive) | > 10 µM (inactive) | > 10 µM (inactive) | > 10 µM (inactive)
4 | COc1ccc(NC(=O)C2C(=O)N(c3ccc(OC)cc3)C(=O)/C2=N/O)cc1 (stereo unspecified) | 32.7 µM (inactive) | > 100 µM (inactive) | 32.2 µM (inactive) | > 100 | > 100 µM (inactive) | 23 µM (inactive) | 22.7 µM (inactive) | 17.2 µM (inactive) | 15.3 µM (inactive) | 32.2 µM (inactive) | > 100 µM (inactive) | 41.6 µM (inactive) | 21.8 µM (inactive) | 22.2 µM (inactive) | 57.8 µM (inactive) |  |  | 
5 | N#Cc1cc([N+](=O)[O-])ccc1NC(=O)C(=O)Nn1c(S)nc2ccccc2c1=O | > 100 µM (inactive) | > 100 µM (inactive) | > 100 µM (inactive) | > 100 | > 100 µM (inactive) | > 100 µM (inactive) | > 100 µM (inactive) | > 100 µM (inactive) | > 100 µM (inactive) | > 100 µM (inactive) | > 100 µM (inactive) | > 100 µM (inactive) |  | > 100 µM (inactive) | > 100 µM (inactive) |  |  | 
6 | CC(=O)N1CCC2(C=Nc3ccccc32)CC1 | > 100 µM (inactive) | > 100 µM (inactive) | > 100 µM (inactive) | > 100 | > 100 µM (inactive) | > 100 µM (inactive) |  | > 100 µM (inactive) |  | > 100 µM (inactive) |  | > 100 µM (inactive) | > 100 µM (inactive) |  | > 100 µM (inactive) |  |  | 
7 | [O-][S+](c1ccc(O)cc1)c1ccc(O)cc1 | > 100 µM (inactive) | > 100 µM (inactive) | > 100 µM (inactive) | > 100 | > 100 µM (inactive) | > 100 µM (inactive) | > 100 µM (inactive) | > 100 µM (inactive) | > 100 µM (inactive) | > 100 µM (inactive) |  | > 100 µM (inactive) | > 100 µM (inactive) | > 100 µM (inactive) | > 100 µM (inactive) |  |  | 
8 | CC(=O)/C(=N\O)C(=O)NCc1ccccc1 | > 100 µM (inactive) | > 100 µM (inactive) | > 100 µM (inactive) | 35.9 | > 100 µM (inactive) | > 100 µM (inactive) | > 100 µM (inactive) |  | > 100 µM (inactive) | > 100 µM (inactive) | > 100 µM (inactive) | > 100 µM (inactive) | > 100 µM (inactive) | > 100 µM (inactive) | 20.2 µM (inactive) |  |  | 
9 | O=C(Cc1ccccc1)NN1C(=O)C(Cl)C1c1cccc(O)c1 (stereo unspecified) | 17.9 µM (inactive) | 3.06 µM (inactive) | 18.6 µM (inactive) | 18.7 | 11.8 µM (inactive) |  | 9.23 µM (inactive) | 17.7 µM (inactive) | 18 µM (inactive) | 26.5 µM (inactive) | 3.58 µM (inactive) | 18.2 µM (inactive) | > 10 µM (inactive) | 15.9 µM (inactive) | 13.5 µM (inactive) |  |  | 
